Measurements reported in patent publication US20140051576A1, “ACTIVE COMPOUND COMBINATIONS COMPRISING A (THIO)CARBOXAMIDE DERIVATIVE AND AN INSECTICIDAL OR ACARICIDAL OR NEMATICIDAL ACTIVE COMPOUND” (priority 2011, published 2014).
Read-outs that look alike come from different tables or passages of the source.

Legend:
Myzus persicae = Myzus persicae - Test (MYZUPE spray application); format: in vivo
Source text: Myzus persicae—Test; (MYZUPE Spray Application)
Chinese cabbage (Brassica pekinesis) leaf—disks infected with all instars of the green peach aphid (Myzus persicae), are sprayed with a preparation of the active ingredient at the desired concentration.
100% means that all aphids have been killed; 0% means that none of the aphids have been killed.

Phaedon cochleariae = Phaedon cochleariae Larvae - Test (PHAECO spray application); format: in vivo
Source text: Phaedon cochleariae—Test; (PHAECO Spray Application)
Solvent: 78 parts by weight of acetone • 1.5 parts by weight of N,N-dimethylformamide Emulsifier: 0.5 parts by weight of alkylarylpolyglycolether
Once dry, the leaf discs are infested with mustard beetle larvae (Phaedon cochleariae).

Spodoptera frugiperda = test: whole plant or invertebrate
Experimental: Spodoptera frugiperda—Test (SPODFR Spray Application)
Solvent: 78.0 parts by weight acetone • 1.5 parts by weight N,N-dimethylformamide Emulsifier: 0.5 parts by weight alkylarylpolyglycolether
Maize (Zea mais) leaf sections are sprayed with a preparation of the active ingredient of the desired concentration. Once dry, the leaf sections are infested with larvae of the fall armyworm (Spodoptera frugiperda).
After the specified period of time, the mortality in % is determined. 100% means that all caterpillars have been killed and 0% means that none of the caterpillars have been killed.

Tetranychus urticae = Tetranychus urticae - Test; OP-resistant (TETRUR spray application); format: in vivo; settings: for mortality at 20 g/ha / mortality at 4 g/ha / mortality at 100 g/ha: Tetranychus urticae; for Mortality in % after 6 days obs.: single active ingredient
Source text: Tetranychus urticae—Test; OP-Resistant (TETRUR Spray Application)
French beans (Phaseolus vulgaris) which are heavily infested with all stages of the two spotted spidermite (Tetranychus urticae), are sprayed with a preparation of the active ingredient at the desired concentration.

[1] = Myzus persicae, 144 h, read-out: Mortality in % after 6 days obs.
[2] = Phaedon cochleariae, 144 h, read-out: Mortality in % after 6 days obs.
[3] = Spodoptera frugiperda, 144 h, read-out: Mortality in % after 6 days obs.
[4] = 48 h, read-out: Mortality in % after 2 days obs.
[5] = 144 h, read-out: Mortality in % after 6 days obs.
[6] = Myzus persicae, 24 h, read-out: Mortality in % after 1 day obs.
[7] = Phaedon cochleariae, 48 h, read-out: Mortality in % after 2 days obs.

CCOP(=S)(OCC)Oc1nc(Cl)c(Cl)cc1Cl [B-1B.10, Chlorpyrifos] was tested, and the mortality at 0.8 g/ha (Myzus persicae; [1]) was 0%, the mortality at 20 g/ha (Phaedon cochleariae; [2]) was 0% and the mortality at 4 g/ha (Spodoptera frugiperda; [3]) was 67%. For the same molecule, the mortality at 20 g/ha (Tetranychus urticae; [4]) was 0% and the mortality at 4 g/ha (Tetranychus urticae; [5]) was 0%.

CC1(C)C(C=C(Cl)Cl)C1C(=O)OC(C#N)c1ccc(F)c(Oc2ccccc2)c1 (stereo not drawn) [B-3A.11, β-Cyfluthrin] was tested, and the “Mortality in % after 6 days obs.” value (Myzus persicae; 0.16 g/ha) was 0%, the “Mortality in % after 1 day obs.” value (Myzus persicae; 0.8 g/ha) was 70% and the “Mortality in % after 6 days obs.” value (Myzus persicae; 0.8 g/ha) was 70%. For the same molecule, the “Mortality in % after 6 days obs.” value (Phaedon cochleariae; 0.16 g/ha) was 50%, the “Mortality in % after 6 days obs.” value (Phaedon cochleariae; 0.8 g/ha) was 67% and the “Mortality in % after 6 days obs.” value (Spodoptera frugiperda; 0.16 g/ha) was 50%. For the same molecule, the “Mortality in % after 6 days obs.” value (Tetranychus urticae; 4 g/ha) was 0%.

CC1(C)[C@H](C(=O)O[C@H](C#N)c2cccc(Oc3ccccc3)c2)[C@@H]1C=C(Br)Br [B-3A.21, Deltamethrin] showed a mortality at 0.8 g/ha (Myzus persicae; [6]) of 80%, a mortality at 0.16 g/ha (Myzus persicae; [1]) of 70% and a mortality at 0.16 g/ha (Phaedon cochleariae; [2]) of 0%. The mortality at 0.8 g/ha (Phaedon cochleariae; [2]) was 33%, the mortality at 0.16 g/ha (Spodoptera frugiperda; Spodoptera frugiperda, 48 h, read-out: Mortality in % after 2 days obs.) was 0% and the mortality at 0.032 g/ha (Spodoptera frugiperda; [3]) was 0%. For the same molecule, the mortality at 0.8 g/ha (Spodoptera frugiperda; [3]) was 33% and the mortality at 4 g/ha (Tetranychus urticae; [5]) was 20%.

Work on CN/C(=N\[N+](=O)[O-])NCc1cnc(Cl)s1 [B-4A.2, Clothianidin] yielded a mortality at 4 g/ha (Myzus persicae; [6]) of 0%, a mortality at 20 g/ha (Phaedon cochleariae; [7]) of 83% and a mortality at 4 g/ha (Phaedon cochleariae; [2]) of 0%. It also gave a mortality at 20 g/ha (Spodoptera frugiperda; [3]) of 0%, a mortality at 20 g/ha (Tetranychus urticae; [4]) of 0% and a mortality at 4 g/ha (Tetranychus urticae; [5]) of 0%. It also gave a mortality at 20 g/ha (Tetranychus urticae; [5]) of 0%.

With CNC(=O)c1cc(C#N)cc(C)c1NC(=O)c1cc(Br)nn1-c1ncccc1Cl [B-26.2, Cyantraniliprole (Cyazypyr)] the “Mortality in % after 1 day obs.” value (Myzus persicae; 0.8 g/ha) was 0%, the “Mortality in % after 6 days obs.” value (Myzus persicae; 0.8 g/ha) was 70% and the “Mortality in % after 2 days obs.” value (Phaedon cochleariae; 0.8 g/ha) was 0%. For the same molecule, the “Mortality in % after 6 days obs.” value (Phaedon cochleariae; 0.8 g/ha) was 67%, the “Mortality in % after 6 days obs.” value (Spodoptera frugiperda; 0.16 g/ha) was 0% and the “Mortality in % after 6 days obs.” value (Tetranychus urticae; 20 g/ha) was 0%.

O=C1C=C(N(Cc2ccc(Cl)nc2)CC(F)F)CO1 [B-27.16, 4-{[(6-chloropyridin-3-yl)methyl](2,2-difluoroethyl)-amino}furan-2(5H)-one] gave a mortality at 4 g/ha (Myzus persicae; [6]) of 0%, a mortality at 100 g/ha (Myzus persicae; [6]) of 80% and a mortality at 100 g/ha (Phaedon cochleariae; [7]) of 50%. It also gave a mortality at 20 g/ha (Phaedon cochleariae; [2]) of 0%, a mortality at 20 g/ha (Spodoptera frugiperda; [3]) of 0% and a mortality at 100 g/ha (Tetranychus urticae; [4]) of 0%. It also gave a mortality at 100 g/ha (Tetranychus urticae; [5]) of 0%.

In the case of Acetamiprid [B-4A.1], the “Mortality in % after 1 day obs.” value (Myzus persicae; 0.8 g/ha) is reported as 70%, the “Mortality in % after 2 days obs.” value (Phaedon cochleariae; 20 g/ha) is reported as 50% and the “Mortality in % after 6 days obs.” value (Phaedon cochleariae; 100 g/ha) is reported as 0%. The “Mortality in % after 6 days obs.” value (Spodoptera frugiperda; 20 g/ha) was 0% and the “Mortality in % after 2 days obs.” value (Tetranychus urticae; 20 g/ha) was 0%.

With Fipronil [B-2B.2] the “Mortality in % after 6 days obs.” value (Myzus persicae; 20 g/ha) was 0%, the “Mortality in % after 6 days obs.” value (Phaedon cochleariae; 0.16 g/ha) was 50% and the “Mortality in % after 2 days obs.” value (Phaedon cochleariae; 0.8 g/ha) was 33%. For the same molecule, the “Mortality in % after 2 days obs.” value (Phaedon cochleariae; 4 g/ha) was 67%, the “Mortality in % after 2 days obs.” value (Spodoptera frugiperda; 100 g/ha) was 67% and the “Mortality in % after 6 days obs.” value (Tetranychus urticae; 100 g/ha) was 0%.

For Transfluthrin [B-3A.46], the “Mortality in % after 1 day obs.” value (Myzus persicae; 20 g/ha) was 0%, the “Mortality in % after 6 days obs.” value (Myzus persicae; 20 g/ha) was 0% and the “Mortality in % after 1 day obs.” value (Myzus persicae; 100 g/ha) was 80%. The “Mortality in % after 6 days obs.” value (Phaedon cochleariae; 4 g/ha) was 0%, the “Mortality in % after 6 days obs.” value (Phaedon cochleariae; 20 g/ha) was 0% and the “Mortality in % after 2 days obs.” value (Phaedon cochleariae; 100 g/ha) was 67%. The “Mortality in % after 6 days obs.” value (Spodoptera frugiperda; 0.8 g/ha) was 33%, the “Mortality in % after 6 days obs.” value (Spodoptera frugiperda; 4 g/ha) was 33% and the “Mortality in % after 6 days obs.” value (Spodoptera frugiperda; 20 g/ha) was 50%. The “Mortality in % after 6 days obs.” value (Tetranychus urticae; 100 g/ha) was 0%.
